From PMC5761851, “Application of a phenotypic drug discovery strategy to identify biological and chemical starting points for inhibition of TSLP production in lung epithelial cells” (PLoS ONE, 2018)
pIC50: −log10 of the molar value. Values joined by “and” are separate entries in the source; they are usually repeats but may differ in a detail not shown here. Equal values may be shown once. Read-outs that look alike come from different tables or passages of the source.

How the values were obtained:
LAD2 cells degranulation = test: Syk dependent LAD2 cells degranulation; type: cell-based, human
Description: Normal human bronchial epithelial cells (NHBE) (Lonza CC-2540,) corresponding to 2 different lots derived from 2 human healthy donors, henceforth referred to as donors #1 and #2, were purchased from Lonza, who provided the cells after obtaining permission for use in research applications by informed consent. Cells were cultured in 5% CO2 at 37°C according to the manufacturer´s instructions using Lonza´s Bronchial Epithelial Basal Medium (BEBM) (CC-3171) supplemented with Lonza´s Bronchial Epithelial Cell Growth Medium bullet kit (BEGM) (CC-4175), and grown in collagen coated T-75 and T-175 tissue culture flasks as required (Becton Dickinson 356485 and 356487). Subculturing after trypsinization and amplification was performed using Lonza´s reagent pack subculture reagents (CC-5034) following the manufacturer´s instructions. CHO-K1 and THP-1 cells were purchased from the ATCC through LGC standards (ATCC CCL-61 and TIB-202 respectively). The LAD2 cell line is a human mast cell line established at the National Institutes of Health (Bethesda, Maryland, U.S.).
Quantification of enzymatic p38 activity and p38-dependent TNF production in THP-1 cells was performed as previously described. Enzymatic Syk kinase activity assays and Syk dependent LAD2 cells degranulation assays were performed as previously described. PI3Kδ dependent pAkt phosphorylation in macrophage colony-stimulating factor (M-CSF) stimulated THP-1 cells was measured as previously described.

CHO-K1 cells = test: CHO-K1 viability (ATPlite); type: cell-based
Description: The viability of NHBE and CHO-K1 cells was quantified using ATP as an indirect read out of the potential cytotoxicity of the compounds. […] Plates were shaken and covered with aluminium foil for 25 min. Luminescence was measured in an Envision reader (Perkin Elmer). Evaluation of viability in CHO-K1 cells was used as an internal compound cytotoxicity standard across cellular assays. […] The plates were incubated for 24 h at 37°C in 5% CO2. After the incubation period, the culture medium was removed and washed with 100 μl of DPBS. Test compounds were dissolved and serially diluted in 100% DMSO. A final 1/100 dilution of each concentration was performed using F12 culture medium with 0.5% FBS. A volume of 100 μl culture medium containing the compounds or 1% DMSO (for control wells) was added to the wells containing the cells and the plate was incubated again 24h. After 24h of compound exposure, cells were washed with DPBS. Then, 100 μl of PBS were added, followed by the addition of 100 μl of ATPlite™ reagent. The plate was shaken for 25 minutes using a microtiter plate shaker. Luminescence was measured using a Luminoskan Ascent luminometer (Thermo Fisher Scientific).
For CHO-K1 viability assays, a standard curve of cells was included in the plate. Luminescence values versus cell number were plotted and the data adjusted to a linear equation. Luminescence values of the samples were interpolated to obtain number of cells. IC50 values were obtained by non-linear regression using Activity Base software (IDBS) and a four-parameter log equation.

[1] = system: TSLP production in NHBE cells; test: TSLP HTRF assay (TSLP production in poly I:C / IL-4 stimulated NHBE cells); type: cell-based, human; conditions: for IC50: Homo sapiens, NHBE, 24 h, NHBE cells donor #1, poly I:C / IL-4, 24h, geometric mean, read-out: Inhibition of TSLP protein production (IC50, μM) (95% CI); for pIC50: individual values, donor #1, read-out: Inhibition of TSLP production in NHBE (IC50)
Description: For dose response curves determinations, stocks of test compounds at a concentration of 1.33x10^-3 M in DMSO were sequentially diluted at 1:4 dilution steps before further 1/50 dilution in BEBM medium containing 1x ITS and 0.1% BSA. For the highest 4 μM concentration test compounds were resuspended in DMSO at a concentration of 2.5x10^-3 M and diluted 1/25 in BEBM medium containing 1x ITS and 0.1% BSA before adding 1 μl to the wells containing the cells.
All subsequent steps were automated using a Sciclone® G3 workstation (Perkin Elmer) with a Twister™ II robot (Perkin Elmer). […] 1 μl of test compound solution prepared at 25x concentration was added to the wells containing NHBE cells. The plates were then incubated during 90 minutes at 37°C, 5% CO2, 90% humidity before adding poly I:C (Invivogen HMW Tirl-pic-5) and human IL-4 (Peprotech 200–04) stimulus in 4 μl of BEBM medium containing 1x ITS, 0.1% BSA and 0.1% DMSO using a Multidrop™. […] Cells were then incubated for 24h in the presence of test compounds and stimulus at 37°C, 5% CO2 and 90% humidity conditions. After the 24h incubation period the plates were transferred to a CyBi®-Well platform (CyBio AG) to collect 10 μl of the supernatants which were transferred to a new plate. TSLP levels in the supernatant were determined using a homogeneous Time-Resolved Fluorescence (HTRF) assay custom developed by Cisbio. The assay was based in the use of a donor dye (europium cryptate) coupled to a monoclonal anti-TSLP antibody and an acceptor dye (d2) coupled to a second polyclonal anti-TSLP antibody. […] 10 μl of the resulting solution was then used to determine TSLP levels as described above.
The standard curve was built with eight points prepared in ITS/BSA in BEBM medium without supplements, starting at 700 pg/ml and diluted 1:2, with medium alone being zero TSLP. Fitting model corresponded to equation 100 of Excel fit software. Data from the primary phenotypic screen was visualized using Vortex (Dotmatics). […] For compound selection the maximum inhibition of the two individual duplicate values was taken into account. Dose response confirmation was performed at single point in the 2 donors tested. 9 point curves were run starting at 4 μM concentration by doing serial 1:4 dilutions in cells derived from both donors.

Syk = Syk (Homo sapiens, UniProt P43405); test: Enzymatic Syk kinase activity assay; type: biochemical
[2] = Homo sapiens, LAD2, geometric mean, read-out: Activity in reference cell based assay (IC50, μM) (95% CI) LAD2 cells degranulation
[3] = Homo sapiens, LAD2, individual values, read-out: Cellular activity (IC50, mM) LAD2 cells degranulation
[4] = individual values, read-out: Cellular activity (IC50, mM) LAD2 cells degranulation
[5] = Cricetulus griseus, CHO-K1, geometric mean, read-out: Inhibition of CHO viability (IC50, μM) (95% CI)
[6] = individual values, read-out: Inhibition of CHO viability (IC50 mM)
[7] = individual values, read-out: Biochemical activity (IC50, mM) (Syk)
[8] = geometric mean, read-out: Activity in reference biochemical assay (IC50, μM) (95% CI) Syk

Compound | IC50 (LAD2 cells degranulation; [2]) [µM] | IC50 (LAD2 cells degranulation; [3]) [µM] | IC50 (LAD2 cells degranulation; [4]) [µM] | IC50 (CHO-K1 cells; [5]) [µM] | IC50 (CHO-K1 cells; [6]) | IC50 [1] [µM] | pIC50 [1] | IC50 (Syk; [7]) | Inhibition of CHO viability % Inhibition ± SD at 3.75 μM (CHO-K1 cells) | Inhibition of CHO viability % at 3.75 micromolar (CHO-K1 cells; individual values) | IC50 (Syk; [8]) [nM] | IC50 (CHO-K1 cells; Cricetulus griseus, CHO-K1, individual values, read-out: Inhibition of CHO viability (IC50 mM)) [µM] | Inhibition of CHO viability % Inhibition ± SD at 3.12 μM (CHO-K1 cells; 3.12 μM) | Inhibition of CHO viability % at 3.12 micromolar (CHO-K1 cells; individual values)
CCn1cc(-c2cccc(-c3cnc(N)c(C(=O)NC4C5CC6CC4CC(O)(C6)C5)n3)c2)cn1 (centres unmarked) [compound 9] | 0.182 | 0.183 | 0.181 | 7 | 8.21 µM and 7.68 µM and 4.44 µM and 9.37 µM and 6.42 µM | 0.302 | 6.23 and 6.70 and 6.63 | 24 nM and 22 nM | – | – | – | – | – | –
COc1cc(-c2cnn(C)c2)cc(-c2cnc(N)c(C(=O)N[C@@H]3[C@@H]4C[C@@H]5C[C@H]3C[C@@](O)(C5)C4)n2)c1 [compound 10] | 0.118 | 0.124 | 0.113 | – | – | 0.277 | 6.23 and 6.70 and 6.74 | 33.8 nM and 33.1 nM | 35.3 % ± 5.5 | 42.5% and 36.2% and 31.8% and 30% | 33 | – | – | –
Nc1ncc(-c2cccc(-c3cccnc3)c2)nc1C(=O)NC1C2CC3CC1CC(O)(C3)C2 (centres unmarked) [compound 11] | 0.26 | 0.313 | 0.217 | 7.85 | 8.4 µM and 7.19 µM and 7.56 µM | 1.14 | 5.84 and 5.75 and 6.25 | 62 nM and 71 nM | – | – | 66 | 8.33 | – | –
Cn1cc(-c2cccc(-c3cnc(N)c(C(=O)NC4C5CC6CC4CC(O)(C6)C5)n3)c2)cn1 (centres unmarked) [compound 12] | 0.118 | 0.107 | 0.131 | – | – | 0.253 | 6.42 and 6.60 and 6.76 | 25 nM and 21 nM | 19 % ± 1 | 20.7% and 17.8% and 20.2% and 20.8% | 22 | – | – | –
Nc1ncc(-c2ccc3[nH]ncc3c2)nc1C(=O)NC1C2CC3CC1CC(O)(C3)C2 (centres unmarked) [compound 13] | – | – | – | – | – | 0.19 | 6.44 and 6.79 and 6.94 | 397 nM and 280 nM | – | – | 334 | – | 36 % ± 3 | 39.6% and 37.7% and 35.3% and 31.4%
Nc1ncc(-c2ccc3cn[nH]c3c2)nc1C(=O)NC1C2CC3CC1CC(O)(C3)C2 (centres unmarked) [compound 14] | 0.403 | 0.409 | 0.398 | – | – | 0.359 | 6.63 and 6.09 and 6.61 | 209 nM and 159 nM | 42 % ± 10 | 51.55% and 51.37% and 30.13% and 37.95% | – | – | – | –
COc1ccc(N(C)c2nc(C)nc3ccccc23)cc1 [compound 16] | – | – | – | 28.8 | – | 0.007 | – | – | – | – | – | – | – | 1.13% and 6.28% and -14.28% and -12.18%
